Source: patent US11919898B2, “Crystal form of azaindole derivative and use thereof” (Wuxi Life Fountain Biotech Co., Ltd, priority 2020, dated 2024)
Read-outs that look alike come from different tables or passages of the source.

How the values were obtained:
[1] = Solubility test in media of various pH (water, SGF, FaSSIF, FeSSIF); type: physicochemical; details: for solubility at 24 h: read-out: Solubility (mg/ml)_24 h
Procedure: The solubility of the crystal form A of the compound of Formula (II) in 4 media with different pH values was tested. About 10 mg of the crystal form A of the compound of Formula (II) was weighed, and then 5.0 mL of different media (water, SGF, FaSSIF, and FeSSIF) were added respectively, to form a suspension. A magnetron was added to the suspension and the suspension was stirred on a magnetic stirrer for 2 hrs, and a sample was taken and centrifuged after 4 hrs. The sample in the upper layer was determined for concentration by HPLC and determined for the pH value.
• FaSSIF: (1). 0.042 g of sodium hydroxide, 0.3438 g of sodium dihydrogen phosphate and 0.6186 g of sodium chloride were weighed, added to 90 mL of purified water and mixed well. The solution was adjusted to pH 6.5 with 1 N hydrochloric acid or 1 N sodium hydroxide, and made up to 100 mL with purified water. (2). 0.224 g of commercially available powder of FaSSIF/FeSSIF/FaSSGF was added to 50 mL of the buffer, stirred until dissolved, and made up to 100 mL with purified water. The prepared buffer was left to stand at room temperature for 2 hrs, and observed to be slightly milky white, which was ready for use (simulating intestinal juice in human before eating). • FeSSIF: (1). 0.404 g of sodium hydroxide, and 0.865 g of glacial acetic acid, 1.1874 g of sodium chloride were weighed and added to 90 mL of purified water and mixed well. The solution was adjusted to pH 5.0 with 1 N hydrochloric acid or 1 N sodium hydroxide, and made up to 100 mL with purified water. (2). 1.12 g of commercially available powder of FaSSIF/FeSSIF/FaSSGF was added to 50 mL of the buffer, stirred until dissolved, and made up to 100 mL with purified water. The prepared buffer was left to stand at room temperature for 2 hrs, and observed to be a clear liquid, which was ready for use (simulating intestinal juice in human after eating). • FaSSGF (SGF): (1). 0.2 g of sodium chloride was weighed and added to 90 mL of purified water and mixed well. The solution was adjusted to pH 1.8 with 1 N hydrochloric acid, made up to 100 mL with purified water, and left to stand until it was naturally cooled to room temperature (simulating human gastric juice before eating).

[2] = target: T1, human FGFR4 (Homo sapiens, UniProt P22455); experiment: 33P isotope-labeled kinase activity assay, FGFR4; type: biochemical; details: ATP 100 μM
T1 construct: purchased Invitrogen P3054
T1 sequence (P22455 22-802): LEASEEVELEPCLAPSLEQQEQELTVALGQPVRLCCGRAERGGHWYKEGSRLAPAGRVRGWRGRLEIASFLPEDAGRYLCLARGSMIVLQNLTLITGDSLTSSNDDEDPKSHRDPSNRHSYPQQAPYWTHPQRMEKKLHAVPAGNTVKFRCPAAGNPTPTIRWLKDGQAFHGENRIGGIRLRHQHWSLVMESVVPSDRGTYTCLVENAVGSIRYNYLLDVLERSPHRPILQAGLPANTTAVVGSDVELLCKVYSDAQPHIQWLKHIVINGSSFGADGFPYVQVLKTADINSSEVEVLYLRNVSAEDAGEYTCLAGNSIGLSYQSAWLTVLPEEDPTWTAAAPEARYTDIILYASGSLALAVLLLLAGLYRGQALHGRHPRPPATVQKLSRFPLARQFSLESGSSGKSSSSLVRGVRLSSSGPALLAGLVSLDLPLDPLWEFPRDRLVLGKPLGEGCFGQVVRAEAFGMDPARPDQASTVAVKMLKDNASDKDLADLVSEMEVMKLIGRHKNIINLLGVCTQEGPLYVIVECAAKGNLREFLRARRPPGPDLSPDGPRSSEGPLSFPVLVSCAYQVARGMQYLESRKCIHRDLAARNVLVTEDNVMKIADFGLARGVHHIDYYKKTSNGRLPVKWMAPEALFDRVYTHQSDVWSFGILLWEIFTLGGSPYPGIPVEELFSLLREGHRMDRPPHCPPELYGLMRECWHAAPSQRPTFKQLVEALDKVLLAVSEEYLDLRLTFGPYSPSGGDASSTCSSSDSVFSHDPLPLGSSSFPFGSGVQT
Procedure: The IC50 value was tested by ^33P isotope-labeled kinase activity assay (Reaction Biology Corp) to evaluate the inhibition of the test compounds on human FGFR1, FGFR4, and c-Met.
Buffer: 20 mM Hepes (pH 7.5), 10 mM MgCl2, 1 mM EGTA, 0.02% Brij35, 0.02 mg/ml BSA, 0.1 mMNa3VO4, 2 mM DTT, and 1% DMSO.
Test procedure: At room temperature, the test compound was dissolved in DMSO to prepare a 10 mM solution for use. The substrate was dissolved in freshly prepared buffer, and the test kinase was added and mixed well. A solution of the test compound in DMSO was added to the mixed reaction solution using an acoustic technology (Echo550). The compound concentration in the reaction solution was 1 μM, 0.25 μM, […], 0.977 nM, 0.244 nM, 0.061 nM, 0.0153 nM, 0.00381 nM, or 10 μM, 2.50 μM, 0.62 μM, 0.156 μM, 39.1 nM, 9.8 nM, 2.4 nM, 0.61 nM, 0.15 nM, and 0.038 nM, respectively. After 15 min of incubation, ^33P-ATP (with an activity of 0.01 μCi/nL, the corresponding concentration is listed in Table 18) was added to start the reaction. The supplier's catalogue number, lot number, and concentration in the reaction solution of FGFR1, FGFR4, c-Met, and substrates thereof are listed in Table 18. […]

[3] = test system: SNU-16 xenograft model; experiment: In vivo pharmacodynamic evaluation, SNU-16 xenograft model; design: species or system nude mice; details: for TGI % (the last dose is given on day 30): SNU-16 xenograft model, nude mice
Procedure: SNU-16 cells in logarithmic growth phase were harvested, counted and resuspended in 50% PBS (pH 7.4, 0.01 M) and 50% Matrigel. The cell concentration was adjusted to 4×10^7 cells/mL, and the cells were then placed in an ice box. The cell suspension was aspirated with a 1 mL syringe and injected subcutaneously into the anterior right axilla of nude mice, at a dose of 200 μL/animal (8×10^6 cells/animal) to establish a SNU-16 xenograft model. The animal status was observed periodically, and the tumor size was measured using an electronic vernier caliper. The data was entered into an Excel spreadsheet, and the tumor volume was calculated, to monitor the tumor growth. When the tumor volume reached 100-300 mm^3, 35 tumor-bearing mice (with a tumor volume of 112-182 mm^3) in good health status having similar tumor volume were selected and randomized into 5 groups (n=7). The average tumor volume in each group was about 150 mm^3. After the test was started, the tumor size was measured twice a week, the tumor volume was calculated, and the body weight of the animal was weighed and recorded.
Analysis of tumor growth inhibition (TGI): The evolutionary growth potential of tumors was evaluated by the relationship between the tumor volume and time. The long axis (L) and short axis (W) of subcutaneous tumor were measured twice a week by a caliper, and the tumor volume (TV) was calculated by the formula ((L×W^2)/2). TGI was calculated from the difference between the median tumor volume of the mice in the solvent group and the median tumor volume of the mice in the drug group, and expressed as a percentage relative to the median tumor volume in the solvent control group.
The test data was calculated and statistically processed by SPSS19.0. Unless otherwise specified, the data were expressed as mean±standard error (Mean±SE), and the comparison between the two groups was analyzed by T-test. […] The solvent 30% PEG400 (containing 70% deionized water, v/v) alone was used as the negative control.

[4] = Stability comparison of crystal form A and crystal form B (slurry in ethanol, XRPD); type: physicochemical; details: from conversion in ethanol, 16 hrs
Excerpt: 35 g of the crystal form B of the compound of Formula (II) was weighed, added to ethanol, and stirred for 16 hrs.

solubility at 24 h ([1]; SGF (FaSSGF), pH 1.25, simulated gastric fluid, thermodynamic from solid, SGF, pH (24 h) 1.25, suspension): 0.112 mg/mL
solubility at 24 h ([1]; pH 4.89, thermodynamic from solid, FeSSIF, pH (24 h) 4.89, suspension): 0.252 mg/mL
solubility at 24 h ([1]; pH 5.55, thermodynamic from solid, FaSSIF, pH (24 h) 5.55, suspension): 0.004 mg/mL
Solubility in words ([1]; simulated gastric juice before eating in human (SGF)): good
Solubility in words ([1]; simulated intestinal juice before eating (FaSSIF)): poor
Solubility in words ([1]; simulated intestinal juice of the small intestine after eating in human (FeSSIF)): good
Solubility in words ([1]; water): hard to dissolve in water
solubility at 24 h ([1]; water, pH 2.42, water, thermodynamic from solid): 0.009 mg/mL
IC50 [2]: 1.49 nM
Structure (SMILES): COc1cc(OC)c(F)c(Cc2c[nH]c3ncc(-c4cnn(CCO)c4)cc23)c1F.Cl
TGI % (the last dose is given on day 30) ([3]; 2.5 mg/kg BID): 72%
TGI % (the last dose is given on day 30) ([3]; 5.0 mg/kg BID): 86%
Tumor inhibitory effect ([3]; tumor model SNU-16, nude mice): excellent tumor inhibitory effect
Relative stability of crystal forms [4]: more stable than the crystal form B of the compound of Formula (II)
